Active and inactive are the calls of the source. The calls are words filed in the database; no cut-off is given here.
How the values were obtained:
RAW264.7 [1] = assay: Cytotoxicity against LPS-stimulated mouse RAW264.7 cells assessed as reduction in cellular metabolism at 3.2 uM incubated for 8 hrs by MTT assay; format: toxicity, cell-based; settings: raw264.7, 8 h
BMDM [2] = assay: Antiinflammatory activity against IFN-gamma and LPS-stimulated mouse BMDM cells assessed as reduction in IL-12 production at 1 to 100 nM primed with 20 U/mL of IFN-gamma followed by 200 ng/mL of LPS stimulation in presence of compound for 48 hrs by ELISA assay; format: functional, cell-based; settings: dose 1-100 nM
RAW264.7 [3] = assay: Cytotoxicity against LPS-stimulated mouse RAW264.7 cells assessed as reduction in cellular metabolism at 10 uM incubated for 8 hrs by MTT assay; format: toxicity, cell-based; settings: raw264.7, 8 h
BMDM [4] = assay: Antiinflammatory activity against IFN-gamma and LPS-stimulated mouse BMDM cells assessed as change in NO production at 1 to 100 nM primed with 20 U/mL of IFN-gamma followed by 200 ng/mL of LPS stimulation in presence of compound for 48 hrs by […] assay; format: functional, cell-based; settings: dose 1-100 nM
BMDM [5] = assay: Antiinflammatory activity against IFN-gamma and LPS-stimulated mouse BMDM cells assessed as change in IL-10 secretion at 1 to 100 nM primed with 20 U/mL of IFN-gamma followed by 200 ng/mL of LPS stimulation in presence of compound for 48 hour by ELISA assay; format: functional, cell-based; settings: dose 1-100 nM
BMDM [6] = assay: Antiinflammatory activity against IFN-gamma and LPS-stimulated mouse BMDM cells assessed as reduction in IL-6 production at 1 to 100 nM primed with 20 U/mL of IFN-gamma followed by 200 ng/mL of LPS stimulation in presence of compound for 48 hrs by ELISA assay; format: functional, cell-based; settings: dose 1-100 nM
BMDM [7] = assay: Antiinflammatory activity against LPS-stimulated mouse BMDM cells assessed as reduction in TNF production preincubated with compound for 8 hrs followed by LPS-induction and measured after 48 hrs by ELISA assay; format: functional, cell-based; settings: dose 1-100 nM, time 56.0 hrs
BMDM [8] = assay: Antiinflammatory activity against LPS-stimulated mouse BMDM cells assessed as reduction IL-6 production at 1 to 100 nM preincubated with compound for 8 hrs followed by LPS-induction and measured after 48 hrs by ELISA assay; format: functional, cell-based; settings: dose 1-100 nM, time 56.0 hrs
[9] = Cytotoxicity against LPS-stimulated mouse BMDM cells assessed as changes in cellular metabolism at 1 to 100 nM for 8 hrs by MTT assay; format: toxicity, cell-based; settings: 0.1 µM, dose 1-100 nM
RAW264.7 [10] = assay: Antiinflammatory activity against LPS-stimulated mouse RAW264.7 cells assessed as reduction in TNF production at 1 to 1000 nM preincubated with compound for 8 hrs followed by LPS-induction and measured after 48 hrs by ELISA based assay; format: functional, cell-based; settings: dose 1-1000 nM, time 56.0 hrs
[11] = Cytotoxicity against IFN-gamma/LPS-stimulated mouse BMDM cells assessed as changes in cellular metabolism at 1 to 100 nM primed with 20 U/mL of IFN-gamma followed by 200 ng/mL of LPS stimulation in presence of compound at 1 to 100 nM for 48 hrs by MTT assay; format: toxicity, cell-based; settings: 0.1 µM, dose 1-100 nM
RAW264.7 [12] = assay: Cytotoxicity against LPS-stimulated mouse RAW264.7 cells assessed as changes in cellular metabolism at 1 to 10000 nM incubated for 8 hrs by MTT assay; format: toxicity, cell-based; settings: raw264.7, 8 h, 10 µM, dose 1-10000 nM
BMDM [13] = assay: Antiinflammatory activity against LPS-stimulated mouse BMDM cells assessed as induction of TNF production at 1 to 100 nM preincubated with compound for 8 hrs followed by LPS-induction and measured after 48 hrs by ELISA assay; format: functional, cell-based; settings: dose 1-100 nM, time 56.0 hrs
[14] = Cytotoxicity against LPS-stimulated mouse BMDM cells assessed as reduction in cellular metabolism at 1 to 100 nM incubated for 8 hrs in presence of 500 ng/mL of LPS-stimulation by MTT assay; format: toxicity, cell-based; settings: 0.1 µM, dose 1-100 nM
BMDM [15] = assay: Antiinflammatory activity against LPS-stimulated mouse BMDM cells assessed as reduction in TNF production at 1 to 100 nM preincubated with compound for 8 hrs followed by LPS-induction and measured after 48 hrs by ELISA assay; format: functional, cell-based; settings: dose 1-100 nM, time 56.0 hrs
BMDM [16] = assay: Antiinflammatory activity against LPS-stimulated mouse BMDM cells assessed as reduction in IL-6 production at 1 to 100 nM preincubated with compound for 8 hrs followed by LPS-induction and measured after 48 hrs by ELISA assay; format: functional, cell-based; settings: dose 1-100 nM, time 56.0 hrs
BMDM [17] = assay: Antiinflammatory activity against LPS-stimulated mouse BMDM cells assessed as reduction in IL-6 production at 10 to 100 nM preincubated with compound for 8 hrs followed by LPS-induction and measured after 48 hrs by ELISA assay; format: functional, cell-based; settings: dose 10-100 nM, time 56.0 hrs

SMILES	Activity (RAW264.7 [1])	Activity (BMDM [2])	Activity (RAW264.7 [3])	Activity (BMDM [4])	Activity (BMDM [5])	Activity (BMDM [6])	Activity (BMDM [7])	Activity (BMDM [8])	Activity [9]	Activity (RAW264.7 [10])	Activity [11]	Activity (RAW264.7 [12])	Activity (BMDM [13])	Activity [14]	Activity (BMDM [15])	Activity (BMDM [16])	Activity (BMDM [17])
CC1=C(CCc2cc(Br)oc2Br)[C@@]2(C=O)CCCC(C)(C)[C@@H]2CC1	Toxic	Active	Toxic	inactive	Active	Active	Dose-dependent-effect	inactive	Non-toxic	inactive	Toxic						
CC1(C)CCC[C@@]23[C@H](O)O[C@@](C)(CC[C@@H]12)[C@@H]3CCc1ccoc1									Non-toxic	inactive		Non-toxic	Active	Toxic			
CC1=CC[C@H]2C(C)(C)CCC[C@]2(C=O)[C@H]1CCc1ccoc1	Toxic	inactive	Toxic			inactive		inactive	Non-toxic	inactive			Active	Toxic			
CC1(C)CCC[C@@]23[C@H](O)O[C@@](C)(CC[C@@H]12)[C@@H]3CCC1=CCN(CC(=O)O)C1=O			Toxic						Non-toxic	Active					Active	Active	
CC1=C(CCC2=CCOC2=O)[C@@]2(C=O)CCCC(C)(C)[C@@H]2CC1		Active	Toxic	inactive	Active	Active			Non-toxic	inactive	Toxic			Toxic			Active
CC1=C(CCc2ccoc2)[C@@]2(C=O)CCCC(C)(C)[C@@H]2CC1	Toxic	inactive	Toxic			inactive			Non-toxic	inactive			Active	Toxic			Active
CO[C@@H]1O[C@@]2(C)CC[C@H]3C(C)(C)CCC[C@@]13[C@H]2CCC1=CCOC1=O		Active	Toxic	inactive	Active	Active			Non-toxic	inactive	Toxic		Active	Toxic			
CC(=O)O[C@@H]1O[C@@]2(C)CC[C@H]3C(C)(C)CCC[C@@]13[C@H]2CCc1ccoc1	Toxic		Toxic							Active							

From ChEMBL document CHEMBL6153035, “Natural and Semisynthetic Immunomodulatory Luakuliide Labdane Diterpenoids” (J Nat Prod, 2025)
